Measured values published in paper PMC3946503, “Impact of the Smoothened Inhibitor, IPI-926, on Smoothened Ciliary Localization and Hedgehog Pathway Activity” (PLoS ONE, 2014).
pEC50: −log10 of the molar value.

Biological target: T1, Smoothened (Smo) (Homo sapiens, UniProt Q99835)
T1 construct: wild-type human Smo overexpressed in C3H10T1/2 cells
Test: BODIPY-cyclopamine competition binding on Smo-expressing cells, flow cytometry
Type: cell-based

T1 sequence (Q99835 28-787): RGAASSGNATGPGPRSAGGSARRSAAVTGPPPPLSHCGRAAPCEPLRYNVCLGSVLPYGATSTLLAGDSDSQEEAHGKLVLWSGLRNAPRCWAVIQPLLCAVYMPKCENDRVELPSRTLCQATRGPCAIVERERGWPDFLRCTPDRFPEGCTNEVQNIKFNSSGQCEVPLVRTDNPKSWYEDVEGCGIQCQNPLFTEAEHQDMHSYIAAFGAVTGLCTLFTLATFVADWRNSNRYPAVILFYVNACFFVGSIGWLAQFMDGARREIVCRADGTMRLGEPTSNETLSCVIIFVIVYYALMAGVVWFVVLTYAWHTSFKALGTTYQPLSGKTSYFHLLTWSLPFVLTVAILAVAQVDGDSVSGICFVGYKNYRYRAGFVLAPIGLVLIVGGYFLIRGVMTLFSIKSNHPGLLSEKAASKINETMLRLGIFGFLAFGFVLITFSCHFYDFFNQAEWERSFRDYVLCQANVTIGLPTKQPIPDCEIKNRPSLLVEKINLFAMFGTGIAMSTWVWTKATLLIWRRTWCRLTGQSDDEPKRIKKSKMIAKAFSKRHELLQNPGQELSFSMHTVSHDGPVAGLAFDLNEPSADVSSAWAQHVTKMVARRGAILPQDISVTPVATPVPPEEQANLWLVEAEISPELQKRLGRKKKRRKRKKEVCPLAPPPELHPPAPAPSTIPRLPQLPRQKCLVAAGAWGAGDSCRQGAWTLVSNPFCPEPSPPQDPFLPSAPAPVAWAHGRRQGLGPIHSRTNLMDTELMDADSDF

## CC1=C2C[C@H]3[C@@H](CC[C@@H]4C[C@H](NS(C)(=O)=O)CC[C@@]43C)[C@@H]2CC[C@@]2(C1)O[C@@H]1C[C@H](C)CN[C@H]1[C@H]2C [IPI-926]
  pEC50: 9.00
